Data taken from article PMC11367390 (RSC Advances, 2024).

Molecular target: α-Glucosidase from Saccharomyces cerevisiae (Saccharomyces cerevisiae, UniProt P53341)
Test: In vitro α-glucosidase inhibition study
Conditions: for inhibition at 25 µM: pH 6.8, read-out: Inhibition at 25 μM (%); for IC50: IC50, μM, average value ± standard deviation, p-nitrophenyl α-D-glucoside substrate, pH 6.8, 37 °C

Sequence of α-Glucosidase from Saccharomyces cerevisiae (P53341 whole entry): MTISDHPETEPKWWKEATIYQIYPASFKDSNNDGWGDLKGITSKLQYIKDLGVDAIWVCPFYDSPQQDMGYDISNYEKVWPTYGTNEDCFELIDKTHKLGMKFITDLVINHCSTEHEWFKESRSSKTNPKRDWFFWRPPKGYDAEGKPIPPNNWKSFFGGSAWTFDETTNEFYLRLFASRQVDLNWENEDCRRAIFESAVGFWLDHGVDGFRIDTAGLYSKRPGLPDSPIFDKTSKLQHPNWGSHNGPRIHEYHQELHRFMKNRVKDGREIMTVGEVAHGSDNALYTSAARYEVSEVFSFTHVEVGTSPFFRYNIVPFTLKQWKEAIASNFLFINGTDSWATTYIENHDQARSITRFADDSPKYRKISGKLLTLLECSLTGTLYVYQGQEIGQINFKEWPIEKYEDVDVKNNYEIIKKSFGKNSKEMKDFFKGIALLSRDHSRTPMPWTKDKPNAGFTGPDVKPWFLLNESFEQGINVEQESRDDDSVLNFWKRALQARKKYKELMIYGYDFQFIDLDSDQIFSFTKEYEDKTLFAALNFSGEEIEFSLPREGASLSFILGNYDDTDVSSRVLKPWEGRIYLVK

SMILES | inhibition at 25 µM | IC50
O=c1c(-c2ccc(OC(F)(F)F)cc2)coc2cc(O)ccc12 [Compound 6j, 7-hydroxy-4′-trifluoromethoxyisoflavone] | 39% | –
Cc1cc(=O)oc2c(Cn3ccnc3)c(O)ccc12 [Compound 9b] | 53.4% | 23.6 ± 1.8 µM
O=c1c(-c2ccc(O)cc2)coc2c(Cn3ccnc3)c(O)ccc12 [Compound 9d] | 42% | 27 ± 0.2 µM
O=c1c(-c2ccc(OC(F)(F)F)cc2)coc2c(Cn3cccn3)c(O)ccc12 [Compound 11j] | 84.1% | 14.3 ± 2 µM
Cc1cc(C)n(Cc2c(O)ccc3c(=O)c(-c4ccc(O)cc4)coc23)n1 [Compound 12c] | 42.8% | 27.4 ± 1.9 µM
COc1ccc(-c2coc3c(Cn4nc(C)cc4C)c(O)ccc3c2=O)cc1 [Compound 12d] | 67.3% | 20.9 ± 2.5 µM
Cc1cc(C)n(Cc2c(O)ccc3c(=O)c(-c4ccc(OC(F)(F)F)cc4)coc23)n1 [Compound 12i] | 94% | 5.8 ± 0.2 µM

Continued, values first:

inhibition at 25 µM | IC50 | SMILES
69.3% | 21.1 ± 0.7 µM | Cc1cc(=O)oc2c(Cn3cnc4ccccc43)c(O)ccc12 [Compound 10b]
64.6% | 20.6 ± 2.1 µM | COc1ccc(-c2coc3c(Cn4cnc5ccccc54)c(O)ccc3c2=O)cc1 [Compound 10d]
48.6% | 25.5 ± 7.9 µM | COc1ccc(-c2c(C)oc3c(Cn4cnc5ccccc54)c(O)ccc3c2=O)cc1 [Compound 10f]
99.1% | 9.5 ± 1.6 µM | O=c1c(-c2ccc(OC(F)(F)F)cc2)coc2c(Cn3cnc4ccccc43)c(O)ccc12 [Compound 10h]
73% | 17.1 ± 2.8 µM | COc1ccc(-c2coc3c(Cn4ncc5ccccc54)c(O)ccc3c2=O)cc1 [Compound 13b]
50.3% | 23.9 ± 2.3 µM | COc1ccc(-c2coc3c(Cn4cc5ccccc5n4)c(O)ccc3c2=O)cc1 [Compound 14b]
